Several values for one entry are separate records, joined by “and”; a condition that tells them apart may be missing. Identical values can stand only once.
Legend:
[1] = Liquid, MP522 conductivity instrument
[2] = xn = mol fraction of the nth substance listed; settings: 298.15 K, 101 kPa, Liquid, MP522 conductivity instrument

CCCC[n+]1ccc(C)cc1.O=S(=O)([N-]S(=O)(=O)C(F)(F)F)C(F)(F)F
Settings | electrical conductivity
[1], 298.15 K, 101 kPa | 0.332 S/m and 0.333 S/m

CC[n+]1ccc(C)cc1.O=S(=O)([N-]S(=O)(=O)C(F)(F)F)C(F)(F)F
Settings | electrical conductivity
[1], 298.15 K, 101 kPa | 0.771 S/m and 0.769 S/m

CCCC[n+]1ccc(C)cc1.O=S(=O)([N-]S(=O)(=O)C(F)(F)F)C(F)(F)F + CCO
[2]
Settings | electrical conductivity [S/m]
x1 = 0.011 | 0.243
x1 = 0.0125 | 0.269
x1 = 0.015 | 0.311
x1 = 0.0186 | 0.369
x1 = 0.0258 | 0.474
x1 = 0.0376 | 0.623
x1 = 0.0436 | 0.689
x1 = 0.0602 | 0.844
x1 = 0.0676 | 0.901
x1 = 0.0852 | 1.01
x1 = 0.1143 | 1.13
x1 = 0.1262 | 1.16
x1 = 0.1387 | 1.19
x1 = 0.1537 | 1.21
x1 = 0.1811 | 1.23
x1 = 0.2232 | 1.22
x1 = 0.2748 | 1.17
x1 = 0.3347 | 1.1
x1 = 0.3809 | 1.03
x1 = 0.4405 | 0.939
x1 = 0.5405 | 0.793
x1 = 0.642 | 0.663
x1 = 0.7148 | 0.579
x1 = 0.8106 | 0.482
x1 = 0.9328 | 0.379
x1 = 1 | 0.333

CC[n+]1ccc(C)cc1.O=S(=O)([N-]S(=O)(=O)C(F)(F)F)C(F)(F)F + CCO
[2]
Settings | electrical conductivity [S/m]
x1 = 0.0118 | 0.292
x1 = 0.0152 | 0.36
x1 = 0.021 | 0.468
x1 = 0.0327 | 0.669
x1 = 0.0593 | 1.04
x1 = 0.07 | 1.16
x1 = 0.0857 | 1.31
x1 = 0.1196 | 1.56
x1 = 0.1573 | 1.73
x1 = 0.2361 | 1.87
x1 = 0.3013 | 1.86
x1 = 0.3773 | 1.77
x1 = 0.4527 | 1.65
x1 = 0.53 | 1.51
x1 = 0.608 | 1.37
x1 = 0.6908 | 1.22
x1 = 0.7803 | 1.07
x1 = 0.8913 | 0.903
x1 = 1 | 0.769

CCCC[n+]1ccc(C)cc1.O=S(=O)([N-]S(=O)(=O)C(F)(F)F)C(F)(F)F + CO
[2]
Settings | electrical conductivity [S/m]
x1 = 0.00761 | 0.7
x1 = 0.00979 | 0.836
x1 = 0.0118 | 0.951
x1 = 0.0142 | 1.07
x1 = 0.0176 | 1.24
x1 = 0.021 | 1.38
x1 = 0.0297 | 1.69
x1 = 0.0366 | 1.86
x1 = 0.0544 | 2.15
x1 = 0.0653 | 2.25
x1 = 0.0711 | 2.28
x1 = 0.0773 | 2.32
x1 = 0.1083 | 2.34
x1 = 0.1388 | 2.25
x1 = 0.1724 | 2.11
x1 = 0.1977 | 2
x1 = 0.2256 | 1.87
x1 = 0.2662 | 1.68
x1 = 0.3346 | 1.4
x1 = 0.3989 | 1.18
x1 = 0.481 | 1.02
x1 = 0.5543 | 0.861
x1 = 0.6316 | 0.719
x1 = 0.714 | 0.599
x1 = 0.7932 | 0.504
x1 = 0.8534 | 0.444
x1 = 0.9551 | 0.362
x1 = 1 | 0.332

CC[n+]1ccc(C)cc1.O=S(=O)([N-]S(=O)(=O)C(F)(F)F)C(F)(F)F + CO
[2]
Settings | electrical conductivity [S/m]
x1 = 0.00925 | 0.925
x1 = 0.0105 | 1.01
x1 = 0.0144 | 1.27
x1 = 0.0176 | 1.45
x1 = 0.0227 | 1.72
x1 = 0.0313 | 2.1
x1 = 0.0393 | 2.36
x1 = 0.0492 | 2.62
x1 = 0.0575 | 2.79
x1 = 0.0666 | 2.94
x1 = 0.0757 | 3.05
x1 = 0.0856 | 3.14
x1 = 0.0993 | 3.22
x1 = 0.1435 | 3.26
x1 = 0.1601 | 3.23
x1 = 0.1736 | 3.2
x1 = 0.1902 | 3.14
x1 = 0.2037 | 3.09
x1 = 0.2297 | 2.97
x1 = 0.2575 | 2.84
x1 = 0.284 | 2.72
x1 = 0.3231 | 2.53
x1 = 0.3561 | 2.39
x1 = 0.3932 | 2.23
x1 = 0.4574 | 2
x1 = 0.5075 | 1.81
x1 = 0.5713 | 1.61
x1 = 0.6042 | 1.52
x1 = 0.6803 | 1.33
x1 = 0.7416 | 1.2
x1 = 0.8215 | 1.04
x1 = 0.8959 | 0.912
x1 = 0.918 | 0.883
x1 = 1 | 0.771

CCCC[n+]1ccccc1.O=S(=O)([N-]S(=O)(=O)C(F)(F)F)C(F)(F)F [1-butylpyridinium bis[(trifluoromethyl)sulfonyl]imide]
electrical conductivity, [1]
Settings | 283.15 K | 293.15 K | 298.15 K | 303.15 K | 313.15 K
101 kPa | 0.151 S/m | – | 0.308 S/m | 0.377 S/m | 0.542 S/m and 0.54 S/m
101.33 kPa | 0.15 S/m and 0.151 S/m | 0.246 S/m | 0.307 S/m and 0.308 S/m | 0.378 S/m and 0.377 S/m | 0.541 S/m and 0.542 S/m and 0.54 S/m

CCCC[n+]1ccccc1.O=S(=O)([N-]S(=O)(=O)C(F)(F)F)C(F)(F)F [1-butylpyridinium bis[(trifluoromethyl)sulfonyl]imide] + CCO
[2]
Settings | electrical conductivity [S/m]
x1 = 0.02 | 0.389
x1 = 0.0313 | 0.543
x1 = 0.0415 | 0.66
x1 = 0.0601 | 0.83
x1 = 0.0722 | 0.915
x1 = 0.103 | 1.06
x1 = 0.1448 | 1.16
x1 = 0.1659 | 1.18
x1 = 0.184 | 1.19
x1 = 0.196 | 1.19
x1 = 0.2208 | 1.18
x1 = 0.2693 | 1.14
x1 = 0.3122 | 1.09
x1 = 0.362 | 1.02
x1 = 0.424 | 0.926
x1 = 0.4616 | 0.872
x1 = 0.5169 | 0.793
x1 = 0.5597 | 0.735
x1 = 0.6073 | 0.674
x1 = 0.6706 | 0.598
x1 = 0.7463 | 0.516
x1 = 0.8415 | 0.426
x1 = 0.8925 | 0.383
x1 = 1 | 0.307

CCCC[n+]1ccccc1.O=S(=O)([N-]S(=O)(=O)C(F)(F)F)C(F)(F)F [1-butylpyridinium bis[(trifluoromethyl)sulfonyl]imide] + CO
[2]
Settings | electrical conductivity [S/m]
x1 = 0.00227 | 0.302
x1 = 0.00676 | 0.679
x1 = 0.0112 | 0.961
x1 = 0.0179 | 1.29
x1 = 0.023 | 1.5
x1 = 0.0297 | 1.71
x1 = 0.0427 | 1.99
x1 = 0.0507 | 2.12
x1 = 0.0696 | 2.28
x1 = 0.092 | 2.35
x1 = 0.1676 | 2.15
x1 = 0.2137 | 1.96
x1 = 0.2653 | 1.72
x1 = 0.2984 | 1.58
x1 = 0.3655 | 1.33
x1 = 0.4009 | 1.22
x1 = 0.4397 | 1.11
x1 = 0.5194 | 0.91
x1 = 0.561 | 0.825
x1 = 0.6014 | 0.749
x1 = 0.6433 | 0.681
x1 = 0.7132 | 0.581
x1 = 0.7592 | 0.523
x1 = 0.8182 | 0.456
x1 = 0.8544 | 0.421
x1 = 0.8988 | 0.381
x1 = 0.9425 | 0.346
x1 = 1 | 0.308

CC[n+]1ccccc1.O=S(=O)([N-]S(=O)(=O)C(F)(F)F)C(F)(F)F [1-ethylpyridinium bis[(trifluoromethyl)sulfonyl]imide]
Settings | electrical conductivity
[1], 298.15 K, 101 kPa | 0.63 S/m and 0.629 S/m

CC[n+]1ccccc1.O=S(=O)([N-]S(=O)(=O)C(F)(F)F)C(F)(F)F [1-ethylpyridinium bis[(trifluoromethyl)sulfonyl]imide] + CCO
[2]
Settings | electrical conductivity [S/m]
x1 = 0.0428 | 0.803
x1 = 0.0551 | 0.956
x1 = 0.0755 | 1.16
x1 = 0.0881 | 1.26
x1 = 0.1135 | 1.43
x1 = 0.1366 | 1.54
x1 = 0.1789 | 1.67
x1 = 0.2096 | 1.71
x1 = 0.234 | 1.73
x1 = 0.2537 | 1.73
x1 = 0.2781 | 1.72
x1 = 0.3029 | 1.7
x1 = 0.3612 | 1.64
x1 = 0.4404 | 1.51
x1 = 0.4844 | 1.44
x1 = 0.5537 | 1.31
x1 = 0.5948 | 1.24
x1 = 0.6418 | 1.16
x1 = 0.7011 | 1.05
x1 = 0.76 | 0.954
x1 = 0.8228 | 0.858
x1 = 0.8845 | 0.769
x1 = 1 | 0.629

CC[n+]1ccccc1.O=S(=O)([N-]S(=O)(=O)C(F)(F)F)C(F)(F)F [1-ethylpyridinium bis[(trifluoromethyl)sulfonyl]imide] + CO
[2]
Settings | electrical conductivity [S/m]
x1 = 0.0169 | 1.42
x1 = 0.0206 | 1.61
x1 = 0.03 | 2
x1 = 0.0416 | 2.42
x1 = 0.0535 | 2.7
x1 = 0.068 | 2.93
x1 = 0.089 | 3.11
x1 = 0.1049 | 3.17
x1 = 0.1209 | 3.19
x1 = 0.1541 | 3.14
x1 = 0.2007 | 2.95
x1 = 0.2781 | 2.55
x1 = 0.3667 | 2.12
x1 = 0.4224 | 1.9
x1 = 0.5562 | 1.44
x1 = 0.6863 | 1.12
x1 = 0.8307 | 0.863
x1 = 1 | 0.63

CCCCCC[n+]1ccccc1.O=S(=O)([N-]S(=O)(=O)C(F)(F)F)C(F)(F)F [1-hexylpyridinium bis(trifluromethylsulfonyl)imide]
[1], 101 kPa
Settings | electrical conductivity
283.15 K | 0.0737 S/m
293.15 K | 0.128 S/m and 0.129 S/m
298.15 K | 0.163 S/m
303.15 K | 0.205 S/m
313.15 K | 0.306 S/m

CCCCC[n+]1ccccc1.O=S(=O)([N-]S(=O)(=O)C(F)(F)F)C(F)(F)F [1-pentylpyridinium bis(trifluoromethylsulfonyl)amide]
Settings | electrical conductivity [S/m]
[1], 298.15 K, 101 kPa | 0.216

CCCCC[n+]1ccccc1.O=S(=O)([N-]S(=O)(=O)C(F)(F)F)C(F)(F)F [1-pentylpyridinium bis(trifluoromethylsulfonyl)amide] + CCO
[2]
Settings | electrical conductivity [S/m]
x1 = 0.0223 | 0.403
x1 = 0.0292 | 0.483
x1 = 0.0374 | 0.574
x1 = 0.0477 | 0.669
x1 = 0.0603 | 0.761
x1 = 0.0725 | 0.831
x1 = 0.092 | 0.912
x1 = 0.1279 | 0.991
x1 = 0.1529 | 1.01
x1 = 0.1636 | 1.01
x1 = 0.175 | 1.01
x1 = 0.2038 | 0.998
x1 = 0.2608 | 0.941
x1 = 0.3058 | 0.882
x1 = 0.3508 | 0.82
x1 = 0.4166 | 0.731
x1 = 0.4692 | 0.662
x1 = 0.5309 | 0.587
x1 = 0.6063 | 0.503
x1 = 0.6746 | 0.437
x1 = 0.7613 | 0.363
x1 = 0.8138 | 0.325
x1 = 0.8772 | 0.283
x1 = 0.9319 | 0.251
x1 = 1 | 0.216

CCCCC[n+]1ccccc1.O=S(=O)([N-]S(=O)(=O)C(F)(F)F)C(F)(F)F [1-pentylpyridinium bis(trifluoromethylsulfonyl)amide] + CO
[2]
Settings | electrical conductivity [S/m]
x1 = 0.00257 | 0.323
x1 = 0.00682 | 0.658
x1 = 0.012 | 0.966
x1 = 0.0185 | 1.26
x1 = 0.0256 | 1.5
x1 = 0.0325 | 1.67
x1 = 0.0398 | 1.82
x1 = 0.0546 | 1.97
x1 = 0.0734 | 2.1
x1 = 0.0854 | 2.11
x1 = 0.1093 | 2.05
x1 = 0.1709 | 1.82
x1 = 0.2113 | 1.61
x1 = 0.3105 | 1.22
x1 = 0.3653 | 1.03
x1 = 0.4197 | 0.886
x1 = 0.4604 | 0.788
x1 = 0.5266 | 0.652
x1 = 0.5689 | 0.585
x1 = 0.6107 | 0.522
x1 = 0.6447 | 0.479
x1 = 0.7183 | 0.401
x1 = 0.7639 | 0.361
x1 = 0.8278 | 0.313
x1 = 0.8938 | 0.27
x1 = 0.9397 | 0.246
x1 = 1 | 0.216
